Series [1] addresses T1, FXR (Rattus norvegicus, UniProt Q62735).
T1 sequence (Q62735 1-469): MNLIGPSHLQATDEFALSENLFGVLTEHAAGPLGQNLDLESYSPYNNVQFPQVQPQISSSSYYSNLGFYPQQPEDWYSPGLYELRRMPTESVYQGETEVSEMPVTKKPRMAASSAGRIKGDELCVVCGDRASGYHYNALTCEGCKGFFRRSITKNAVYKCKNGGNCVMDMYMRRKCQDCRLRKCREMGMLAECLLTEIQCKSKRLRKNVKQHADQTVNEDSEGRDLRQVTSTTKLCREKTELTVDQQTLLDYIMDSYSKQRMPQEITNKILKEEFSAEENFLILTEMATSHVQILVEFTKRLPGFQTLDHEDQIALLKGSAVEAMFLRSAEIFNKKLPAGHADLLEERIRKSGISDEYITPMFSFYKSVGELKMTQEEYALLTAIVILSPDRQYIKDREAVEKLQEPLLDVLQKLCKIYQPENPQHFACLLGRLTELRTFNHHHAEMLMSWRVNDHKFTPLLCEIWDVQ
T1 sequence (P19793 1-462 partner): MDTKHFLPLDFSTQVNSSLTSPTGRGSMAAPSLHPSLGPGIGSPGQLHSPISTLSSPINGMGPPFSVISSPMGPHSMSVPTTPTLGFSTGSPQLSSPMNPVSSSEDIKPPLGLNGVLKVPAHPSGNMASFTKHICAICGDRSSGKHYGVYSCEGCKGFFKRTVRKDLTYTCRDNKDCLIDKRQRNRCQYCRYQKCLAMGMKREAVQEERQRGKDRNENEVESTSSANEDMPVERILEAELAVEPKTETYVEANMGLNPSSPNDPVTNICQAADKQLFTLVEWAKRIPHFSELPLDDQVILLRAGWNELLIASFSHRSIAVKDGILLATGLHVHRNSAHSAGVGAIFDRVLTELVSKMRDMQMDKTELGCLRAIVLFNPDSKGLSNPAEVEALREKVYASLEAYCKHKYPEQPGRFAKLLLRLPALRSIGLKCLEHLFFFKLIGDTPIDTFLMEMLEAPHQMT
The experiment in a line: Transient transfection assay, FXR + RXR with liver bile acid transporter. The class given is cell-based. As to conditions: for EC50: with the liver bile acid transporter. The text has this: The liver and ileum express tissue-specific bile acid transport proteins for efficient uptake of these compounds. […] CV-1 cells therefore were co-transfected with a human liver bile acid transporter (accession L21893). Use of this transporter allows hydrophilic bile acid or bile acid-derived compounds or compounds, which due to their structural similarity to bile acid are transported by the transporter, to be tested for activation of the intracellular bile acid nuclear receptor. […] Any suitable non-specific transporter may also be used.
After transfection, cells were treated with 100 μM concentrations of the indicated bile acid.
In addition to the structure-activity studies, dose-response analyses were performed for some bile acid nuclear receptor ligands. For these analyses, shown in FIG. 11, CV-1 cells were transfected as above, with the liver bile acid transporter, and treated with the indicated varying concentrations of each bile acid.

For series [2], the target named is T2, FXR-RXR heterodimers (Rattus norvegicus, UniProt Q62735).
T2 sequence (Q62735 1-469): T1 sequence (Q62735 1-469)
T2 sequence (P19793 1-462 partner): T1 sequence (P19793 1-462 partner)
The experiment in a line: Transient transfection activation assay in CV-1 cells, EcRE×6 reporter, FXR + RXR. The class given is cell-based. The text has this: Suitable reporter gene constructs are well known to skilled workers in the fields of biochemistry and molecular biology. Reporter/receptor pairs used in the assay reported in FIG. 1 are listed in Table I. All transfections additionally contained CMV-βgal as an internal control. Suitable constructs for use in the these studies may conveniently be cloned into pCMV. pCMV contains the cytomegalovirus promoter/enhancer followed by a bacteriophage T7 promoter for transcription in vitro. Other vectors known in the art can be used in the methods of the present invention.
CV-1 cells for the activation assays were grown in Dulbecco's modified Eagle's medium supplemented with 10% resin charcoal-stripped fetal bovine serum, 50 U/ml penicillin G and 50 μg/ml streptomycin sulfate (DMEM-FBS) at 37° C. in 5% CO2. One day prior to transfection, cells were plated to 50-80% confluence using phenol red free DMEM-FBS.
The cells were transiently transfected by lipofection. Reporter constructs (300 ng/10^5 cells) and cytomegalovirus-driven expression vectors (20-50 ng/10^5 cells) were added, with CMV-β-gal (500 ng/10^5 cells) as an internal control. After 2 hours, the liposomes were removed and the cells were treated for approximately 45 hours with phenol red free DMEM-FBS containing the test bile acid and other compounds.
Any compound which is a candidate for activation of FXR may be tested by this method. […] After exposure to ligand, the cells were harvested and assayed for β-galactosidase activity (control) and activity of the specific reporter gene.
Activity of the reporter gene can be conveniently normalized to the internal control and the data plotted as fold activation relative to untreated cells.
(§1) A variety of commercially available bile acids (Sigma) were tested for their ability to activate known FXR-RXR (FIG. 9; left panel) and FXR-RXRm (FIG. 9, right panel).
(§2) CV-1 cells were grown in Dulbecco's Modified Eagle's medium supplemented with 10% resin-charcoal stripped fetal bovine serum, 50 U/ml penicillin G and 50 μg/ml streptomycin sulfate (DMEM-FBS) at 37° C. in 5% CO2. One day prior to transfection, cells were plated to 50-80% confluence using phenol-red free DMEM-FBS.

In series [3] the test system is FXR derived from human, rat and mouse. The experiment in a line: Antagonism of CDCA activation of FXR in CV-1 cells. The class given is cell-based. As to conditions: 50 μM CDCA, 20 μM azole compound. As to the method: The FXR receptor activation assays disclosed herein may be used not only to test compounds for activation of FXR as above, but also for compounds which antagonize FXR activation. […] See Example 7.
CV-1 cells were grown in DMEM supplemented with 10% resin-charcoal stripped fetal bovine serum, 50 U/ml penicillin G and 50 μg/ml streptomycin sulfate at 37° C. in 5% CO2. Cells were plated to 50-80% confluence one day prior to transfection using phenol red-free DMEM-FBS. The cells were transfected by lipofection using N-[1-(2,3-dioleoyloxy)propyl]-N,N,N-ammonium methyl sulfate according to manufacture's instructions (Boehringer Mannheim). The cells were transfected with a CMV expression vector containing the FXR indicated in FIG. 16 (none, −; human, hFXR; rat, rFXR; or mouse, mFXR) and RXR. The luciferase reporter construct contained the herpesvirus thymidine kinase promoter (−105/+51) linked to six copies of the response element hsp27 EcRE. […] After exposure to the agonist and candidate antagonist compounds, cells were harvested and assayed for luciferase and β-galactosidase activity. […] Therefore, clotrimazole, Compound A and Compound B were selected from the screen as FXR receptor antagonists.

Series [4] deals with T3, FXR-RXR heterodimers (Rattus norvegicus, UniProt Q62735).
T3 sequence (Q62735 1-469): T1 sequence (Q62735 1-469)
T3 sequence (P19793 1-462 partner): T1 sequence (P19793 1-462 partner)
T3 sequence (Q61026 625-765 partner limits assumed): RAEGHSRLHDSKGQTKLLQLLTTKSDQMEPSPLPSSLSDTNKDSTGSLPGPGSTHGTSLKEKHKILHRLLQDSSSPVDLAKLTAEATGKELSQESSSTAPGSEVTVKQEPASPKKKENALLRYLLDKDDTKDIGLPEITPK
The experiment in a line: In vitro coactivator recruitment assay (mobility shift), FXR + RXR, GST-GRIP1. It is filed as biochemical.
Protocol: In vitro coactivator recruitment assays were performed by adding the ligand to a mixture of the following components: FXR, 9-cis retinoic acid receptor, a coactivator, and a labeled FXR response element (probe). […] GRIP1 was expressed in bacteria and purified for these assays. The GST-GRIP1 construct, containing the three receptor interaction domains of mouse GRIP1 (Arg 625-Lys 765, accession U39060) fused to glutathione-S-transferase, was created for bacterial expression of the GRIP1 coactivator.
After addition of the putative ligand to the mixture of components describe above and mixing, the mixture is incubated under conditions.
GST-GRIP1 was expressed in E. coli and purified on glutathione-sepharose columns. […] Complexes were electrophoresed through a 5% polyacrylamide gel in 0.5×TBE (45 mM Tris base, 45 mM boric acid, 1 mM EDTA) at room temperature. Electrophoretic mobility indicated recruitment of coactivator.

Series [5] deals with T4, FXR + RXRm (Rattus norvegicus, UniProt Q62735).
T4 sequence (Q62735 1-469): T1 sequence (Q62735 1-469)
T4 sequence (Q61026 625-765 partner): T3 sequence (Q61026 625-765 partner limits assumed)
The series is described as follows: In vitro coactivator recruitment assay (mobility shift), FXR + RXRm, GST-GRIP1. The class given is biochemical.
Protocol: In vitro coactivator recruitment assays were performed by adding the ligand to a mixture of the following components: FXR, 9-cis retinoic acid receptor, a coactivator, and a labeled FXR response element (probe). A polyamino acid containing the receptor interaction domains of co-activator GRIP1 may be used as the coactivator, however any functional coactivator or coactivator complex is contemplated for use in this assay. GRIP1 was expressed in bacteria and purified for these assays. The GST-GRIP1 construct, containing the three receptor interaction domains of mouse GRIP1 (Arg 625-Lys 765, accession U39060) fused to glutathione-S-transferase, was created for bacterial expression of the GRIP1 coactivator. […] Response elements suitable for use in this assay may be any nucleic acid probe which is substantially homologous to the target DNA sequence of the bile acid nuclear receptor.
After addition of the putative ligand to the mixture of components describe above and mixing, the mixture is incubated under conditions. […] Techniques such as, for example, thin layer chromatography, high pressure liquid chromatography, size exclusion chromatography, sedimentation, immunoseparation techniques, or any other convenient method known in the art may be used.
To distinguish between binding through the FXR and RXR subunits, the coactivator recruitment assays were repeated substituting RXRm for RXR. […]

Series [6] addresses T5, RXR (GAL-L-RXR) (Homo sapiens, UniProt P19793).
T5 sequence (P19793 203-462): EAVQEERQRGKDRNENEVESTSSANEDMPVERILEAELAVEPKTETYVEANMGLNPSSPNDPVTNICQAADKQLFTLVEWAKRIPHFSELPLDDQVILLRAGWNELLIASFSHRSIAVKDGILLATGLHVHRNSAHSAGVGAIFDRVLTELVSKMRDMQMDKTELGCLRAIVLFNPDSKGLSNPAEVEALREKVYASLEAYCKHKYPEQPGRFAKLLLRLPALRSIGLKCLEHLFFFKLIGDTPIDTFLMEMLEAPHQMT
The experiment in a line: GAL4 chimera activation assay in CV-1 cells, UASG×4 reporter, GAL-L-RXR.
Description: CV-1 cells were transiently transfected with a UASG×4 reporter and expression vectors for β-galactosidase and either GAL-L-RXR or the GAL-L-RXRm LBD mutant.
Confirmation of the analytical procedure was achieved by testing FXR-RXR and FXR-RXRm dimers for activation by RXR and FXR ligands. […] This type of assay therefore can specifically discriminate between activation by RXR ligands and FXR ligands.

The target of series [7] is T6, FXR-RXRm (Rattus norvegicus, UniProt Q62735).
T6 sequence (Q62735 1-469): T1 sequence (Q62735 1-469)
The experiment in a line: Transient transfection activation assay in CV-1 cells, FXR + RXRm. It is filed as cell-based. As to conditions: 100 nM. As to the method:
as §1, §2

Series [8] concerns RXRα; PPARα, γ and δ; VDR; T3Rβ; RAR; PXR; LXRα and CARβ. The experiment in a line: Activation of other receptors by CDCA (data not shown).
The mark [9] stands for this setting: bile acids 100 μM, no bile acid transporter.

“Also recorded” adds a separate entry of the source.

The results in this text go back to patent publication US20020132223A1, “Methods for modulating activity of the FXR nuclear receptor” (City of Hope, priority 1999, published 2002).

For orientation: EC50 means the concentration at which the effect is half-maximal.

With `C[C@H](CCC(=O)O)[C@H]1CC[C@H]2[C@@H]3CC[C@@H]4C[C@H](O)CC[C@]4(C)[C@H]3C[C@H](O)[C@]12C` [DCA, deoxycholic acid], the EC50 in series [1] is ~50 µM. With `C[C@H](CCC(=O)O)[C@H]1CC[C@H]2[C@@H]3[C@H](O)[C@@H](O)[C@@H]4C[C@H](O)CC[C@]4(C)[C@H]3CC[C@]12C` [α-muricholic acid], the “activity as FXR activator” value in series [2] (setting [9]) is “inactive”. For the compound `CC(=O)N1CCN(c2ccc(OCC3COC(Cn4ccnc4)(c4ccc(Cl)cc4Cl)O3)cc2)CC1` (stereo not shown) [ketonazole], in series [3], the “antagonism of CDCA activation of FXR” value is “inactive”. Regarding `C[C@H](CCC(=O)O)[C@H]1CC[C@H]2[C@@H]3[C@H](O)C[C@@H]4C[C@H](O)CC[C@]4(C)[C@H]3C[C@H](O)[C@]12C` [CA, cholic acid], the “coactivator recruitment by FXR-RXR” value in series [4] is “less effective”. The “activity as FXR activator” value in series [2] (setting [9]) was “inactive”. Moreover, in series [1] (100 μM, coexpression of the liver bile acid transporter), the “activation of FXR” value is 170 fold. For `COC(=O)/C=C(\C)CC/C=C(\C)CC[C@H]1OC1(C)C` [JH III, juvenile hormone III], the “activity as FXR activator” value in series [2] (50 μM) is given as “far weaker activity relative to the most efficacious bile acids”. With `C[C@H](CCC(=O)NCC(=O)O)[C@H]1CC[C@H]2[C@@H]3CC[C@@H]4C[C@H](O)CC[C@]4(C)[C@H]3CC[C@]12C` [glyco-LCA], the “coactivator recruitment by FXR-RXRm” value in series [5] is listed as “recruited coactivator”.

Consider `C[C@H](CCC(=O)O)[C@H]1CC[C@H]2[C@@H]3[C@H](O)C[C@@H]4C[C@H](O)CC[C@]4(C)[C@H]3CC[C@]12C` (single isomer, unassigned) [peak Z, chenodeoxycholic acid], for which the “effect on RXR” value in series [6] (HPLC fractions, 25 μg/ml) is given as “no effect”. In the case of `C[C@H](CCC(=O)O)[C@H]1CC[C@H]2[C@@H]3CC[C@@H]4C[C@H](O)CC[C@]4(C)[C@H]3CC[C@]12C` [LCA, lithocholic acid], the EC50 in series [1] is ~50 µM. `C[C@H](CCC(=O)O)[C@H]1CC[C@H]2[C@@H]3C(=O)C[C@@H]4C[C@H](O)CC[C@]4(C)[C@H]3CC[C@]12C` [7-ketolithocholic acid, 5β-cholanic acid-3α-ol-7-one]: the “activity as FXR activator” value in series [2] (setting [9]) was “activity intermediate between CDCA and UDCA”. Still for that read-out and setting: with `C[C@H](CCC(=O)O)[C@H]1CC[C@H]2[C@@H]3C[C@@H](O)[C@@H]4C[C@H](O)CC[C@]4(C)[C@H]3CC[C@]12C` [murocholic acid] the entry was “inactive”. For the compound `c1ccc(-c2cn(C(c3ccccc3)(c3ccccc3)c3ccccc3)cn2)cc1` [Compound B], the “antagonism of CDCA activation of FXR” value in series [3] was “displayed antagonist properties; also recorded: demonstrate inhibition of FXR activation”. For `Cc1cc2c(cc1C1(c3ccc(C(=O)O)cn3)CC1)C(C)(C)CCC2(C)C` [LG268], in series [7], the “response of FXR-RXRm” value was “little or no response”.

For the compound `C[C@H](CCC(=O)O)[C@H]1CC[C@H]2[C@@H]3[C@H](O)C[C@@H]4C[C@H](O)CC[C@]4(C)[C@H]3CC[C@]12C` [CDCA, chenodeoxycholic acid], the “activation of GAL-L-RXR chimera” value in series [6] is recorded as “did not activate”. Further, in series [8], the “activation of other receptors” value is reported as “failed to activate”. With `Clc1ccccc1C(c1ccccc1)(c1ccccc1)n1ccnc1` [clotrimazole], the “antagonism of CDCA activation of FXR” value in series [3] is on record as “strongest effect; also recorded: strongly active”. Still for that read-out and setting: the value for `FC(F)(F)c1cccc(C(c2ccccc2)(c2ccccc2)n2ccnc2)c1` [Compound A] was “displayed antagonist properties; also recorded: significant but weak activity”. Consider `C[C@H](CCC(=O)O)[C@H]1CC[C@H]2[C@@H]3[C@H](O)[C@H](O)[C@@H]4C[C@H](O)CC[C@]4(C)[C@H]3CC[C@]12C` [hyocholic], for which the “activity as FXR activator” value in series [2] (setting [9]) was “inactive”.
